In patent US8119671B2, “Isoxazoline-substituted benzamide compound and pest control agent” (Nissan Chemical Industries, Ltd., priority 2007, dated 2012):

Columns and labels:
Type in all cases: in vivo
[1] = tested on: Spodoptera litura; assay: Test Example 2: Mortality Test for Spodoptera litura; settings: 144 h
Procedure: (§1) A 10% emulsifiable concentrate of the compound of the present invention (depending on the type of the compound, a 10% wettable powder was subjected to the test) was diluted with water containing a spreader to prepare a drug solution in a concentration of 10 ppm. In this drug solution, a leaf of canarium album was immersed for about 10 seconds and was air-dried and then put into a petri dish. In the petri dish, five 2 instar larvae of Spodoptera litura per petri dish were released and the petri dish was capped and stored in a thermostat room of 25° C. The number of killed larvae after 6 days was measured and the mortality was calculated from the same calculation formula as that in Test Example 1. Here, the test was carried out with two replications.

[2] = tested on: Homona magnanima; assay: Test Example 3: Mortality Test for Homona magnanima; settings: 144 h
Procedure: as §1, with “of 100” for “of 10”, “of Homona magnanima” for “of Spodoptera litura”

[3] = tested on: Helicoverpa armigera; assay: Test Example 4: Mortality Test for Helicoverpa armigera; settings: 144 h
Procedure: as §1, with “of 100” for “of 10”, “dish, one” for “dish, five”, “instar larva” for “instar larvae”, “of Helicoverpa armigera” for “of Spodoptera litura”, “dish was” for “dish were”, “with 2” for “with two”

[4] = tested on: Plutella xylostella; assay: Test Example 1: Mortality Test for Plutella xylostella; settings: 144 h
Procedure: as §1, with “Plutella xylostella” for “Spodoptera litura”, “following” for “same”, “formula: Mortality (%)=(number of killed larvae/number of released larvae)×100.” for “formula as that in Test Example 1.”

[5] = tested on: Tetranychus urticae; assay: Test Example 14: Mortality Test for Tetranychus urticae; settings: 144 h
Procedure: In a styrol cup having an inner diameter of 7 cm, a wet filtration paper was laid, and on the paper, a leaf of kidney bean cut out so as to have the same diameter as the inner diameter of the cup was laid, followed by inoculating 10 larvae of Tetranychus urticae per leaf to the leaf. A 10% emulsifiable concentrate of the compound of the present invention (depending on the type of the compound, a 10% wettable powder was subjected to the test) was diluted with water containing a spreader to prepare a drug solution in a concentration of 500 ppm. The drug solution was dusted using a rotary dusting tower in an amount of 2.5 mL per styrol cup and the cup was capped and stored in a thermostat room of 25° C. The number of killed larvae after 6 days was measured and the mortality was calculated from the same calculation formula as that in Test Example 1. Here, the test was carried out with two replications.

[6] = tested on: Aulacophora femoralis; assay: Test Example 12: Mortality Test for Aulacophora femoralis; settings: in Cucumis sativus, 144 h
Procedure: as §1, with “of 500” for “of 10”, “of cucumber” for “of canarium album”, “of Aulacophora femoralis” for “of Spodoptera litura”

[7] = tested on: Nilaparvata lugens; assay: Test Example 8: Mortality Test for Nilaparvata lugens; settings: 144 h, drug solution 500 ppm, Oryza sativa leaf sheath immersed, 2 instar larvae, after 6 days
Procedure: A 10% emulsifiable concentrate of the compound of the present invention (depending on the type of the compound, a 10% wettable powder was subjected to the test) was diluted with water containing a spreader to prepare a drug solution in a concentration of 500 ppm. In this drug solution, a leaf sheath of Oryza sativa was immersed for about 10 seconds and was air-dried and then put into a test tube. In the test tube, five 2 instar larvae of Nilaparvata lugens per test tube were released and the test tube was capped with a sponge and stored in a thermostat room of 25° C. The number of killed larvae after 6 days was measured and the mortality was calculated from the same calculation formula as that in Test Example 1. Here, the test was carried out with two replications.

[8] = tested on: Frankliniella occidentalis; assay: Test Example 18: Mortality Test for Frankliniella occidentalis (Comparative Test 2); settings: 48 h
Procedure: In a styrol cup having an inner diameter of 7 cm, a wet filtration paper was laid, and on the paper, a leaf of kidney bean cut out so as to have the same diameter as the inner diameter of the cup was laid, followed by inoculating ten 1 instar larvae of Frankliniella occidentalis per leaf to the leaf. 10% emulsifiable concentrates of the compound of the present invention and a comparative compound were diluted with water containing a spreader to prepare drug solutions in a predetermined concentration. The drug solutions were dusted using a rotary dusting tower in an amount of 2.5 mL per styrol cup, and the cup was capped and stored in a thermostat room of 25° C. The number of killed larvae after 2 days was measured and the mortality was calculated from the following calculation formula: Mortality (%)=(number of killed larvae/number of released larvae)×100. Here, the test was carried out with two replications.

[9] = tested on: Liriomyza trifolii; assay: Test Example 13: Mortality Test for Liriomyza trifolii; settings: 144 h, drug solution 500 ppm, kidney bean leaf with eggs immersed, after 6 days
Procedure: A 10% emulsifiable concentrate of the compound of the present invention (depending on the type of the compound, a 10% wettable powder was subjected to the test) was diluted with water containing a spreader to prepare a drug solution in a concentration of 500 ppm. In this drug solution, a leaf of kidney bean on which Liriomyza trifolii laid eggs (10 eggs/leaf) and which was cut out to a diameter of 7 cm was immersed for about 10 seconds and was air-dried and then laid on a wet filtration paper laid in a styrol cup having an inner diameter of 7 cm. The styrol cup was capped and stored in a thermostat room of 25° C. The number of killed larvae after 6 days was measured and the mortality was calculated from the same calculation formula as that in Test Example 1. Here, the test was carried out with two replications.

SMILES: Cc1cc(C2=NOC(c3cc(Cl)cc(Cl)c3)(C(F)(F)F)C2)ccc1C(=O)NC1(c2ccccn2)CC1 (stereo not shown) [No. 1-007, 4-[5-(3,5-Dichlorophenyl)-5-trifluoromethyl-4,5-dihydroisoxazole-3-yl]-2-methyl-N-[1-(2-pyridyl)cyclopropyl]benzamide]
- mortality at 10 ppm [1]: ≥ 80%
- mortality at 100 ppm [2]: ≥ 80%
- mortality at 100 ppm [3]: ≥ 80%
- mortality at 10 ppm [4]: ≥ 80%
- mortality at 500 ppm [5]: ≥ 80%
- mortality at 500 ppm [6]: ≥ 80%
- mortality at 500 ppm [7]: ≥ 80%
- mortality at 0.1 ppm [8]: 0%
- mortality at 0.3 ppm [8]: 0%
- mortality at 1 ppm [8]: 38.1%
- mortality at 3.3 ppm [8]: 96.3%
- mortality at 10 ppm [8]: 100%
- mortality at 500 ppm [9]: ≥ 80%
